Results from ChEMBL document CHEMBL2029217, “Design, synthesis, and structure-activity relationships of novel spiro-piperidines as acetyl-CoA carboxylase inhibitors” (Bioorg Med Chem Lett, 2012).

Columns and labels:
[1] = Lipophilicity, log D of the compound at pH 7.4; details: buffer
[2] = target: Acetyl-CoA carboxylase 1 (Homo sapiens, UniProt Q13085); assay: Inhibition of human ACC1 using acetyl-coA as substrate incubated for 60 mins prior to substrate addition measured after 20 mins by malachite green assay
[3] = target: Acetyl-CoA carboxylase 2 (Homo sapiens, UniProt O00763); assay: Inhibition of human ACC2 using acetyl-coA as substrate incubated for 60 mins prior to substrate addition measured after 20 mins by malachite green assay
[4] = Clearance in human hepatic microsomes assessed per mg protein at 1 uM after 20 mins by HPLC analysis; assay type: ADME, Microsome; details: liver microsomes, read-out: CLH
[5] = Total clearance in Crl:CD(SD)(IGS) rat at 1 mg/kg, iv; assay type: ADME, organism-based; set-up: dose 1 mg/kg, route intravenous; details: in vivo
[6] = AUC in Crl:CD(SD)(IGS) rat at 3 mg/kg, po; assay type: ADME, organism-based; set-up: dose 3 mg/kg, route oral; details: plasma
[7] = Cmax in Crl:CD(SD)(IGS) rat at 3 mg/kg, po; assay type: ADME, organism-based; set-up: dose 3 mg/kg, route oral; details: in vivo
[8] = Mean residence time in Crl:CD(SD)(IGS) rat at 1 mg/kg, iv; assay type: ADME, organism-based; set-up: dose 1 mg/kg, route intravenous; details: in vivo
[9] = Volume of distribution at steady state in Crl:CD(SD)(IGS) rat at 1 mg/kg, iv; assay type: ADME, organism-based; set-up: dose 1 mg/kg, route intravenous; details: in vivo, read-out: Vdss
[10] = Oral bioavailability in Crl:CD(SD)(IGS) rat at 3 mg/kg; assay type: ADME, organism-based; details: in vivo
[11] = Tmax in Crl:CD(SD)(IGS) rat at 3 mg/kg, po; assay type: ADME, organism-based; set-up: dose 3 mg/kg, route oral; details: in vivo

Acetyl-CoA carboxylase 2, sequence (O00763 whole entry): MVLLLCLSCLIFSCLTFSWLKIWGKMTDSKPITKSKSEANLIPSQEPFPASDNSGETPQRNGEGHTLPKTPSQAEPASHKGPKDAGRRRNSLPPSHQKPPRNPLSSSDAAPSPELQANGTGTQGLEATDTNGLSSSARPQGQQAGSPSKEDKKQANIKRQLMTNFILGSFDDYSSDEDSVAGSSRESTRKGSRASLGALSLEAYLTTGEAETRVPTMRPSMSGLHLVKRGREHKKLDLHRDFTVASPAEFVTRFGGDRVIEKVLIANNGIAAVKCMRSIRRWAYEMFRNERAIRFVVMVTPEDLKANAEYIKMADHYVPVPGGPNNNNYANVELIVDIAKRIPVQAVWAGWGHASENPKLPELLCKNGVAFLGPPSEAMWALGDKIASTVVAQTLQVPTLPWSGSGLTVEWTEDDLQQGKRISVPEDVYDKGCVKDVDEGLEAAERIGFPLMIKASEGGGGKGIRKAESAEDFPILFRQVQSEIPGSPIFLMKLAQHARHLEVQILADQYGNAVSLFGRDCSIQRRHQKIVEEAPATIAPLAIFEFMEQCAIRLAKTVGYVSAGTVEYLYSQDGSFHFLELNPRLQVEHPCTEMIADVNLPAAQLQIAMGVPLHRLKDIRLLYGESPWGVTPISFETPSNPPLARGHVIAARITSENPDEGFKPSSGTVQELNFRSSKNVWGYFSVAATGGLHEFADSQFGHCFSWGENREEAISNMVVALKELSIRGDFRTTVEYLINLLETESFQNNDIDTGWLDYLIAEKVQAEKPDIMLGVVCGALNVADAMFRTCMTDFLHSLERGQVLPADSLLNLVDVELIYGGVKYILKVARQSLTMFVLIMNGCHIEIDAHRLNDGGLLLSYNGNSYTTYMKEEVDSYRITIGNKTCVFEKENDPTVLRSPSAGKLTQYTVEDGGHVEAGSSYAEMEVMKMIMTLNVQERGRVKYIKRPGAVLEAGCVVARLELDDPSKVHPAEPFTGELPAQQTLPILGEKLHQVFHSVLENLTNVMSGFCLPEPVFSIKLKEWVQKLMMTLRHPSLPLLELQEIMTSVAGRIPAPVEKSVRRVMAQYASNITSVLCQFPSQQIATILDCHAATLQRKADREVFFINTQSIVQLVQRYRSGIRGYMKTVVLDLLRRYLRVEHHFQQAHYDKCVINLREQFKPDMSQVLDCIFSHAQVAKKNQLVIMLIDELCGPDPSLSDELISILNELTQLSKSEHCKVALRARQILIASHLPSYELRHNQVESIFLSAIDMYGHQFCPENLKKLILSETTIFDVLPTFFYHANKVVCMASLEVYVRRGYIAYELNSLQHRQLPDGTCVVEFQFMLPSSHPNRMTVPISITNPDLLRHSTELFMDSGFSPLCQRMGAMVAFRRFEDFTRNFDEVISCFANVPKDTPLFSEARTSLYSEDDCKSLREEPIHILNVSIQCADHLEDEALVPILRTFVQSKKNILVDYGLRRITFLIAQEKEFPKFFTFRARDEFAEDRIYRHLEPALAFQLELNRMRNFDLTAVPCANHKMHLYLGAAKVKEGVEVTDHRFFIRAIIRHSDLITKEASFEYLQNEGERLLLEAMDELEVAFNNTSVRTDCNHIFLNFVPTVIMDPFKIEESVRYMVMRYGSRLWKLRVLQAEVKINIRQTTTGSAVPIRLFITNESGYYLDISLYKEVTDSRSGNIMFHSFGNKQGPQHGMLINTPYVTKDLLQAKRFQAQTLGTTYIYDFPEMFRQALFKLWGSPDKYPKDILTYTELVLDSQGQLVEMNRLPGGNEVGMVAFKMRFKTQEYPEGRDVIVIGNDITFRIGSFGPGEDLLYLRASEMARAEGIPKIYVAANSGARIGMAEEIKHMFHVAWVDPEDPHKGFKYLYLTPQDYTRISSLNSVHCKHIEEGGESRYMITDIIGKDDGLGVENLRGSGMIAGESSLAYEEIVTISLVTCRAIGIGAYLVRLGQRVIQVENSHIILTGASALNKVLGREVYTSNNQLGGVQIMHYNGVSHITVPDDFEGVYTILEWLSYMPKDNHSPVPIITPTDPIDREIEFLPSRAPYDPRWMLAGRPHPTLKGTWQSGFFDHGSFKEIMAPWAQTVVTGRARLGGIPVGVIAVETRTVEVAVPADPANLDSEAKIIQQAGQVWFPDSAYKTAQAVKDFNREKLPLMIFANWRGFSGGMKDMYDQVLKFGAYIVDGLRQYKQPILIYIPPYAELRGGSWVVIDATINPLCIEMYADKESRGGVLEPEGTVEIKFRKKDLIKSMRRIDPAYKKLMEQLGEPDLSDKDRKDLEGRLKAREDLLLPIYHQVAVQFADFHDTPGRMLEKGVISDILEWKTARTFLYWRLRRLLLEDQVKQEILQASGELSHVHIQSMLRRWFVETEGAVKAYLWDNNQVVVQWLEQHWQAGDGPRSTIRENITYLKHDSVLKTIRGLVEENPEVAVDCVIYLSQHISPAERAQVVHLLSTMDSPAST

logD [1] | IC50 [2] [nM] | IC50 [3] [nM] | microsomal CLint at 1 µM [4] [µL/min/mg] | clearance [5] [mL/min/kg] | AUC [6] [ng·h/mL] | Cmax [7] [ng/mL] | MRT [8] [min] | Vd [9] [L/kg] | bioavailability [10] [%] | Tmax [11] [min] | SMILES
2.62 | 350 | 33 | 71 | – | – | – | – | – | – | – | CCNC(=O)Nc1sc2ccccc2c1C(=O)N1CCC(N2CCCC3(CCN(CC)C3=O)C2)CC1 (racemic)
2.09 | 410 | 43 | 150 | – | – | – | – | – | – | – | CCC1=NC2(CCCN(C3CCN(C(=O)c4c(NC(N)=O)sc5ccccc45)CC3)C2)C(=O)N1CC (racemic)
2.51 | 160 | 8.5 | 33 | 15.8 | 1400 | 440 | 78 | 1.3 | 45 | 30 | CNC(=O)Nc1sc2nc(C)ccc2c1C(=O)N1CCC(N2CCC[C@]3(CC(=O)N(C(C)C)C3=O)C2)CC1
2.39 | 150 | 17 | 26 | – | – | – | – | – | – | – | CCNC(=O)Nc1sc2nc(C)ccc2c1C(=O)N1CCC(N2CCCC3(C2)NC(=O)N(C(C)C)C3=O)CC1 (racemic)
2.44 | 280 | 22 | 110 | – | – | – | – | – | – | – | CCNC(=O)Nc1sc2ccccc2c1C(=O)N1CCC(N2CCCC3(C2)NC(=O)N(CC)C3=O)CC1 (racemic)
3.01 | – | – | 180 | – | – | – | – | – | – | – | CCNC(=O)Nc1sc2ccccc2c1C(=O)N1CCC(N2CCCC3(C2)CC(C)(C)OC3=O)CC1 (racemic)
2.27 | 76 | 15 | 47 | – | – | – | – | – | – | – | CCNC(=O)Nc1sc2nc(C)ccc2c1C(=O)N1CCC(N2CCCC3(C2)N=C(C)N(C(C)C)C3=O)CC1 (stereo not given)
– | 230 | 32 | 130 | – | – | – | – | – | – | – | CCNC(=O)Nc1sc2ccccc2c1C(=O)N1CCC(N2CCCC3(CC(=O)N(CC)C3=O)C2)CC1 (racemic)
2.49 | 78 | 14 | 79 | – | – | – | – | – | – | – | CCNC(=O)Nc1sc2nc(C)ccc2c1C(=O)N1CCC(N2CCCC3(C2)CC(C)(C)OC3=O)CC1 (racemic)
2.45 | 150 | 27 | 120 | – | – | – | – | – | – | – | CCNC(=O)Nc1sc2cccnc2c1C(=O)N1CCC(N2CCCC3(C2)CC(C)(C)OC3=O)CC1 (racemic)
2.79 | 360 | 51 | 190 | – | – | – | – | – | – | – | CCNC(=O)Nc1sc2ccccc2c1C(=O)N1CCC(N2CCCC3(C2)C(=O)N(CC)C(=O)N3C)CC1 (racemic)
2.23 | 510 | 64 | 45 | – | – | – | – | – | – | – | CCNC(=O)Nc1sc2ccccc2c1C(=O)N1CCC(N2CCCC3(CCN(C)C3=O)C2)CC1 (racemic)
2.61 | 120 | 18 | 66 | – | – | – | – | – | – | – | CNC(=O)Nc1sc2ccccc2c1C(=O)N1CCC(N2CCCC3(CCN(C(C)C)C3=O)C2)CC1 (racemic)
1.85 | – | – | 41 | – | – | – | – | – | – | – | CCN1C(=O)OC2(CCCN(C3CCN(C(=O)c4c(NC(N)=O)sc5ccccc45)CC3)C2)C1=O (racemic)
2.18 | 48 | 4.4 | 90 | – | – | – | – | – | – | – | CNC(=O)Nc1sc2nc(C)ccc2c1C(=O)N1CCC(N2CCC[C@@]3(C2)CC(C)(C)OC3=O)CC1
3.01 | – | – | 230 | – | – | – | – | – | – | – | CCNC(=O)Nc1sc2ccccc2c1C(=O)N1CCC(N2CCC[C@@]3(C2)CC(C)(C)OC3=O)CC1
1.77 | 300 | 75 | 60 | – | – | – | – | – | – | – | CCN1C(=O)C2(CCCN(C3CCN(C(=O)c4c(NC(N)=O)sc5ccccc45)CC3)C2)N=C1C (racemic)
2.43 | 93 | 9 | 45 | – | – | – | – | – | – | – | CCNC(=O)Nc1sc2nc(C)ccc2c1C(=O)N1CCC(N2CCC[C@]3(CCN(C(C)C)C3=O)C2)CC1
2.2 | 350 | 23 | 64 | – | – | – | – | – | – | – | CCN1C(=O)CC2(CCCN(C3CCN(C(=O)c4c(NC(N)=O)sc5ccccc45)CC3)C2)C1=O (stereo not given)
2.32 | 150 | 37 | 110 | – | – | – | – | – | – | – | CCNC(=O)Nc1sc2nccnc2c1C(=O)N1CCC(N2CCCC3(C2)CC(C)(C)OC3=O)CC1 (racemic)
2.47 | 190 | 40 | 98 | – | – | – | – | – | – | – | CCNC(=O)Nc1sc2ccccc2c1C(=O)N1CCC(N2CCCC3(C2)OC(=O)N(CC)C3=O)CC1 (racemic)
2.06 | 650 | 79 | 35 | – | – | – | – | – | – | – | CCNC(=O)Nc1sc2ccccc2c1C(=O)N1CCC(N2CCCC3(CCNC3=O)C2)CC1 (racemic)
2.08 | 110 | 16 | 110 | – | – | – | – | – | – | – | CCNC(=O)Nc1sc2ncccc2c1C(=O)N1CCC(N2CCCC3(C2)CC(C)(C)OC3=O)CC1 (racemic)
2.43 | 80 | 17 | 230 | – | – | – | – | – | – | – | CCN1C(=O)C2(CCCN(C3CCN(C(=O)c4c(NC(N)=O)sc5ccccc45)CC3)C2)N=C1C(C)C (racemic)
2.39 | 160 | 15 | 38 | – | – | – | – | – | – | – | CCNC(=O)Nc1sc2nc(C)ccc2c1C(=O)N1CCC(N2CCCC3(C2)OC(=O)N(C(C)C)C3=O)CC1 (stereo not given)
